Patent publication US20230201292A1, “HERBAL FORMULATION FOR THE PREVENTION AND MANAGEMENT OF TYPE-2 DIABETES MELLITUS AND ASSOCIATED MICROVASCULAR COMPLICATIONS” (priority 2021, published 2023)

Tested on: Streptozotocin (STZ) treated diabetic rats
Experiment: Streptozotocin (STZ) treated diabetic rats: blood glucose, hs CRP, IL-6, adiponectin
Format: in vivo
Settings: for Blood glucose level: STZ (65 mg/kg) diabetic rats; for Adiponectin / IL-6 / hs CRP: STZ diabetic rats

C[C@H]1O[C@H](O[C@H]2[C@H](O)[C@@H](O)[C@@H](O[C@H]3[C@H](O)[C@@H](O)C(O)O[C@@H]3CO)O[C@@H]2CO)[C@H](O)[C@@H](O)[C@@H]1N[C@H]1C=C(CO)[C@@H](O)[C@H](O)[C@H]1O (stereo partly drawn) [Acarbose]
Blood glucose level (7th Days): 228.33 ± 19.44 mg/day
Blood glucose level (14th Days): 192.74 ± 15.18 mg/day
Blood glucose level (28th Days): 157.51 ± 10.24 mg/day
Adiponectin (7th Days): 8.87 ± 2.10 µg/mL
IL-6 (7th Days): 2.87 ± 0.25 pg/mL
hs CRP (7th Days): 6.78 ± 1.52 mg/L
Adiponectin (14th Days): 9.65 ± 1.63 µg/mL
IL-6 (14th Days): 2.49 ± 0.32 pg/mL
hs CRP (14th Days): 5.43 ± 0.75 mg/L
Adiponectin (28th Days): 10.23 ± 2.14 µg/mL
IL-6 (28th Days): 2.23 ± 0.26 pg/mL
hs CRP (28th Days): 4.97 ± 0.87 mg/L
